Test results: ChEMBL document CHEMBL1201862, “PubChem BioAssay data set” (2004)
Values joined by “and” are separate entries in the source; they are usually repeats but may differ in a detail not shown here. Equal values may be shown once.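 The compound was tested at five concentrations on cells cultured in 96-well plates, with a 48-hour exposure period. The concentration for 50% growth inhibition is given as GI50.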 Active and inactive are the calls of the source. No stated cut-off is given here; in the data, active = GI50 up to about 1.1 µM and inactive = higher.

Legend:
Assay in all cases: inhibition of tumour cell growth, NCI panel, 48 h
[1] = test system: CAKI-1
[2] = test system: COLO 205
[3] = test system: EKVX
[4] = test system: HCT-116
[5] = test system: HOP-62
[6] = test system: Hs-578T
[7] = test system: M14
[8] = test system: MDA-MB-435
[9] = test system: MOLT-4
[10] = test system: Malme-3M
[11] = test system: NCI-H226
[12] = test system: OVCAR-8
[13] = test system: SF-268
[14] = test system: SF-539
[15] = test system: SN12C
[16] = test system: SNB-75
[17] = test system: U-251
[18] = test system: ACHN
[19] = test system: NCI-H23

Structure (SMILES)	GI50 [1]	GI50 [2]	GI50 [3]	GI50 [4]	GI50 [5]	GI50 [6]	GI50 [7]	GI50 [8]	GI50 [9]	GI50 [10]	GI50 [11]	GI50 [12]	GI50 [13]	GI50 [14]	GI50 [15]	GI50 [16]	GI50 [17]	GI50 [18]	GI50 [19]
O=C(NNC(=O)c1ccccc1O)c1ccco1	> 100 µM (inactive)	83 µM (inactive)	> 100 µM (inactive)	97.5 µM (inactive)	> 100 µM (inactive)	> 100 µM (inactive)	> 100 µM (inactive)	> 100 µM (inactive)	> 100 µM (inactive)	> 100 µM (inactive)	> 100 µM (inactive)	80.7 µM (inactive)	> 100 µM (inactive)	> 100 µM (inactive)	> 100 µM (inactive)	38.6 µM (inactive)	> 100 µM (inactive)		
CC(C)C(Nc1ncnc2nc[nH]c12)C(=O)O (centres undefined)	> 100 µM (inactive)	> 100 µM (inactive)	> 100 µM (inactive)	> 100 µM (inactive)	> 100 µM (inactive)	> 100 µM (inactive)	> 100 µM (inactive)	> 100 µM (inactive)		> 100 µM (inactive)	> 100 µM (inactive)	> 100 µM (inactive)	> 100 µM (inactive)		> 100 µM (inactive)	> 100 µM (inactive)	> 100 µM (inactive)	> 100 µM (inactive)	> 100 µM (inactive)
CCNC(=O)CCC(C)[C@H]1CCC2C3C(C[C@H](OC(C)=O)[C@@]21C)[C@@]1(C)CCC2(C[C@H]1C[C@H]3OC(C)=O)OOC1(CCC(C)CC1)OO2 (some centres undefined)	1.5 µM (inactive) and 820 nM (active)	1.53 µM (inactive) and 1.65 µM (inactive)	1.39 µM (inactive) and 1.3 µM (inactive)	1.94 µM (inactive) and 1.79 µM (inactive)	689 nM (active) and 1.31 µM (inactive)	2.62 µM (inactive) and 2.68 µM (inactive)	2.73 µM (inactive) and 2.14 µM (inactive)	1.79 µM (inactive) and 1.72 µM (inactive)		2.23 µM (inactive) and 1.6 µM (inactive)	1.52 µM (inactive) and 1.69 µM (inactive)	2.61 µM (inactive) and 1.51 µM (inactive)		1.97 µM (inactive) and 2.75 µM (inactive)	2.52 µM (inactive) and 1.83 µM (inactive)	1.59 µM (inactive) and 1.95 µM (inactive)	2.09 µM (inactive) and 1.6 µM (inactive)	1.55 µM (inactive) and 1.63 µM (inactive)	2.13 µM (inactive) and 2.2 µM (inactive)
COc1cc(O)c2c(=O)c(OC)c(-c3ccc4c(c3)OCO4)oc2c1		> 100 µM (inactive)	> 60.8 µM (inactive)	> 44.4 µM (inactive)	7.76 µM (inactive)	21.6 µM (inactive)	> 85.1 µM (inactive)	> 100 µM (inactive)	> 68.9 µM (inactive)	> 100 µM (inactive)	> 57.9 µM (inactive)	6.15 µM (inactive)	4.31 µM (inactive)	> 27.4 µM (inactive)	> 100 µM (inactive)	5.9 µM (inactive)	9.27 µM (inactive)	17.5 µM (inactive)	> 31.5 µM (inactive)
COC(CNC(=O)C(C)NC(=O)CCc1ccccc1)OC (centres undefined)	> 100 µM (inactive)	> 100 µM (inactive)	> 100 µM (inactive)	> 100 µM (inactive)		> 100 µM (inactive)	> 100 µM (inactive)	> 100 µM (inactive)	> 100 µM (inactive)	> 100 µM (inactive)	> 100 µM (inactive)	> 100 µM (inactive)	> 100 µM (inactive)	> 100 µM (inactive)	> 100 µM (inactive)	> 100 µM (inactive)	> 100 µM (inactive)	> 100 µM (inactive)	> 100 µM (inactive)
N#Cc1c(O)c(/C=N/c2ncccn2)c(=O)n2c1[nH]c1ccccc12	> 100 µM (inactive)	> 100 µM (inactive)	> 100 µM (inactive)	> 100 µM (inactive)		> 100 µM (inactive)	> 100 µM (inactive)	> 100 µM (inactive)	> 100 µM (inactive)	> 100 µM (inactive)	> 100 µM (inactive)	> 100 µM (inactive)	> 100 µM (inactive)	> 100 µM (inactive)	> 100 µM (inactive)	44.1 µM (inactive)	> 100 µM (inactive)		> 100 µM (inactive)
CCOC(=O)c1cc2c3c(c(C(C)=O)c(OC)c2[nH]1)N(C(=O)CC)CC3	14.9 µM (inactive)	18.2 µM (inactive)	11.4 µM (inactive)	14.4 µM (inactive)	25.1 µM (inactive)	19.4 µM (inactive)	16.8 µM (inactive)	15.6 µM (inactive)	4.05 µM (inactive)	12.6 µM (inactive)	10.2 µM (inactive)	19.8 µM (inactive)	16.4 µM (inactive)	19.8 µM (inactive)	20.9 µM (inactive)	20.7 µM (inactive)	19.2 µM (inactive)		11.9 µM (inactive)
CC(=O)NC(CSC1=C2NC(=O)\C=C/C=C\C=C/C(C)C(O)CC(=O)/C(C)=C\CC(O)/C=C\C(C)C(O)C(C)C=C(C)C(=O)c3c(O)c(C)cc(c3C1=O)C2=O)C(=O)O (centres undefined)	> 100 µM (inactive)	21.7 µM (inactive)	> 100 µM (inactive)	36.4 µM (inactive)	74 µM (inactive)	27.5 µM (inactive)	> 100 µM (inactive)	> 100 µM (inactive)	28.6 µM (inactive)	52.1 µM (inactive)	> 100 µM (inactive)	> 100 µM (inactive)		> 100 µM (inactive)	79.1 µM (inactive)	28.6 µM (inactive)	43.2 µM (inactive)	66.4 µM (inactive)	> 100 µM (inactive)
COc1c(-c2ccc3c(c2)OCO3)oc2cc(O)cc(O)c2c1=O	27.7 µM (inactive)	> 100 µM (inactive)	43.7 µM (inactive)	62.1 µM (inactive)	18.6 µM (inactive)	14.3 µM (inactive)	69.8 µM (inactive)	45.7 µM (inactive)	21.2 µM (inactive)		> 100 µM (inactive)	45.4 µM (inactive)	32.6 µM (inactive)	39.6 µM (inactive)	51.1 µM (inactive)	13.4 µM (inactive)	75.2 µM (inactive)	27 µM (inactive)	63.4 µM (inactive)
CC(=O)OCC1OC(n2cnc(C(N)=S)c2N)C(OC(C)=O)C1OC(C)=O (centres undefined)	> 100 µM (inactive)	> 100 µM (inactive)		> 100 µM (inactive)	> 100 µM (inactive)	> 100 µM (inactive)	> 100 µM (inactive)	> 100 µM (inactive)	> 100 µM (inactive)	> 100 µM (inactive)	> 100 µM (inactive)	> 100 µM (inactive)	> 100 µM (inactive)	> 100 µM (inactive)	> 100 µM (inactive)	> 100 µM (inactive)	> 100 µM (inactive)	> 100 µM (inactive)	> 100 µM (inactive)
Cn1nc2ccc([N+](=O)[O-])cc2[n+]1[O-]	> 100 µM (inactive)	> 100 µM (inactive)	> 100 µM (inactive)	> 100 µM (inactive)	> 100 µM (inactive)	> 100 µM (inactive)	> 100 µM (inactive)	> 100 µM (inactive)	> 100 µM (inactive)	> 100 µM (inactive)	> 100 µM (inactive)	> 100 µM (inactive)		> 100 µM (inactive)	22.4 µM (inactive)	> 100 µM (inactive)	> 100 µM (inactive)	> 100 µM (inactive)	> 100 µM (inactive)
